Experimental data as given in PMC11084427 (2024).

Legend:
[1] = test system: poly(dAdT)2 (DNA, polymer) AT; experiment: UV melting, 260 nm; conditions: Na+ (sodium cacodylate, I = 0.05 M); pH 7.0; compound/polynucleotide r = 0.3; per base
[2] = test system: poly A-poly U (pApU) (RNA, polymer) A/U; experiment: UV melting, 260 nm; conditions: Na+ (sodium cacodylate, I = 0.05 M); pH 7.0; compound/polynucleotide r = 0.3; per base
[3] = test system: poly dA-poly dT (pdApdT) (DNA, polymer) A/T; experiment: UV melting, 260 nm; conditions: Na+ (sodium cacodylate, I = 0.05 M), pH 7.0, per base
[4] = test system: poly(dAdT)2 (DNA, polymer) AT; experiment: fluorescence titration, Scatchard; conditions: Na+ (sodium cacodylate, I = 0.05 M); pH 7.0, 25 °C; per phosphate; per base
[5] = test system: poly(dGdC)2 (DNA, polymer) GC; experiment: fluorescence titration, Scatchard; conditions: Na+ (sodium cacodylate, I = 0.05 M); pH 7.0, 25 °C; per phosphate; per base
[6] = test system: poly A-poly U (pApU) (RNA, polymer) A/U; experiment: fluorescence titration, Scatchard; conditions: Na+ (sodium cacodylate, I = 0.05 M), per phosphate, per base
[7] = test system: dAdTdT (ATT) triplex (DNA, polymer) A/T/T; experiment: UV melting, 260 nm; conditions: Na+ (sodium cacodylate with NaCl, I = 0.1 M); pH 7.0, 1 mM EDTA; 7.5 μM compound, r = 0.3; transition Tm3→1 (third strand); per base
[8] = test system: poly dA-poly dT (pdApdT) (DNA, polymer) A/T; experiment: fluorescence titration, Scatchard; conditions: Na+ (sodium cacodylate, I = 0.05 M); pH 7.0, 25 °C; per phosphate; per base
[9] = test system: dAdTdT (ATT) triplex (DNA, polymer) A/T/T; experiment: fluorescence titration, Scatchard; conditions: Na+ (sodium cacodylate, I = 0.05 M); pH 7.0, 25 °C; per phosphate; per base
[10] = compound/polynucleotide r = 0.3

| ΔTm [1] | ΔTm [2] | ΔTm [3, 10] | log Ka [4] | log Ka [5] | log Ka ([6]; pH 5.0, 25 °C, not determinable at pH 7.0) | ΔTm ([3]; r = 0.3, biphasic, second transition) | ΔTm [7] | log Ka ([6]; pH 7.0, 25 °C) | log Ka [8] | log Ka [9] | Compound |
| --- | --- | --- | --- | --- | --- | --- | --- | --- | --- | --- | --- |
| 1.2 ± 0.5 °C | 0 ± 0.5 °C | 0.7 ± 0.5 °C | – | – | – | – | – | – | – | – | COC(=O)[C@H](Cc1ccc2c(c1)c(C)nc1ccccc12)NC(=O)CNC(=O)CNC(=O)c1ccc(C(=O)NC(=N)N)[nH]1 |
| 2.6 ± 0.5 °C | 0 ± 0.5 °C | 1.5 ± 0.5 °C | 6.7 | 6.1 | 5.5 | – | – | – | – | – | COC(=O)[C@H](Cc1ccc2c(c1)c(C)nc1ccccc12)NC(=O)CNC(=O)[C@H](CCCCN)NC(=O)c1ccc(C(=O)NC(=N)N)[nH]1 |
| 1.0 ± 0.5 °C | 2.5 ± 0.5 °C | – | 6.7 | 5.8 | – | 2.1 ± 0.5 °C | 1.1 ± 0.5 °C | 7.1 | 6.6 | 7.4 | COC(=O)[C@H](Cc1ccc2c(c1)c(C)nc1ccccc12)NC(=O)[C@H](CCCCN)NC(=O)CNC(=O)c1ccc(C(=O)NC(=N)N)[nH]1 |
